The assay deals with T1, GLUT1 (Homo sapiens, UniProt P11166).
T1 construct: endogenous in cells; host or cells: DLD1 or CHO-K1
T1 sequence (P11166 1-492): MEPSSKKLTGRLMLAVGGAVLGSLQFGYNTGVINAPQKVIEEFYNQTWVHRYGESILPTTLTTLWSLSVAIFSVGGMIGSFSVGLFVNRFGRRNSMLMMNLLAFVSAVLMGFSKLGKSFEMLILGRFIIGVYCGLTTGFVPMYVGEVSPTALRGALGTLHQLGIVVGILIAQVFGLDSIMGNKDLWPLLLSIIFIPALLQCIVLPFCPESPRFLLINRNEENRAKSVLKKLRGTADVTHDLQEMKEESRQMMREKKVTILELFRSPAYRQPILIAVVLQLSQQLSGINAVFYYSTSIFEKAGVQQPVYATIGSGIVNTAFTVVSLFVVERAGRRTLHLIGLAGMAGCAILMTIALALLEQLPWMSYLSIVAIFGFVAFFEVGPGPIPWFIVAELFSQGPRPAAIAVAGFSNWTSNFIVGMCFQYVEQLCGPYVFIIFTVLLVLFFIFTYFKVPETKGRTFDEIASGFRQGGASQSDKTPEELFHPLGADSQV
The assay is described as follows: Indirect measurement of GLUT activity by quantification of intracellular ATP levels: glucose induced ATP increase (GLUT1 inhibition). Format: cell-based. The settings on record: DLD1 cells; 1 mM glucose, 1 uM Rotenone, 15 min; CellTiter-Glo ATP levels; IC50 values standardized to cytochalasin B IC50 values; read-out: IC50 regarding glucose induced ATP increase (GLUT1 inhibition). From the text: Indirect Measurement of GLUT Activity by Quantification of Intracellular ATP Levels
It is well known that a combination of small-molecule inhibitors of mitochondrial electron transport chain and glucose catabolism synergistically suppress ATP production and impair cellular viability (Ulanovskaya et al., 2008, 2011; Liu, et al. 2001). We therefore used DLD1 or CHO-K1 cells in combination with an oxidative phosphorylation inhibitor to identify GLUT inhibitors. Cell lines were maintained in DMEM medium supplemented with 10% FCS and 1% Penicillin-Streptomycin solution and 2% Glutamax. The cells were treated with trypsin and seeded into 384 plates at a density of 4000 cells/well. The cells were then cultured overnight in glucose free media containing 1% FCS to reduce intracellular ATP levels. After 24 h the cells were incubated at 37° C. containing the appropriate glucose or in case of GLUT2 fructose concentration (1 mM and 30 mM respectively) with or without compounds and 1 uM Rotenone for 15 min. The CellTiter-Glo® Luminescent Cell Viability Assay from Promega was then used to measure ATP levels. Compounds able to reduce the ATP levels within 15 min of glucose application were considered to be glucose uptake inhibitors.
In the case of `Cc1cc(Cn2ncc(NC(=O)c3cc(C(F)(F)F)nc4ccc(Br)cc34)c2C)no1` [Example 42, 6-bromo-N-{5-methyl-1-[(5-methyl-1,2-oxazol-3-yl)methyl]-1H-pyrazol-4-yl}-2-(trifluoromethyl)quinoline-4-carboxamide], the IC50 stood at 1130 nM.

In the case of `CCc1noc(Cn2ncc(NC(=O)c3cc(C(F)(F)F)nc4ccc(Br)cc34)c2C)n1` [Example 35, 6-bromo-N-{1-[(3-ethyl-1,2,4-oxadiazol-5-yl)methyl]-5-methyl-1H-pyrazol-4-yl}-2-(trifluoromethyl)quinoline-4-carboxamide], the IC50 is 1200 nM.

For the molecule `Cc1c(NC(=O)c2cc(C(N)=O)nc3ccccc23)cnn1Cc1ccn(C)n1` [Example 34, N^4-{5-methyl-1-[(1-methyl-1H-pyrazol-3-yl)methyl]-1H-pyrazol-4-yl}quinoline-2,4-dicarboxamide], the IC50 came out at 753 nM.

With `COc1ccc(Cn2ncc(NC(=O)c3cc(C(N)=O)nc4ccccc34)c2C)cc1` [Example 13, N^4-[1-(4-methoxybenzyl)-5-methyl-1H-pyrazol-4-yl]quinoline-2,4-dicarboxamide], the IC50 worked out at 2.2 nM.

As for `COc1ccc(Cn2ncc(NC(=O)c3cc(C(F)(F)F)nc4ccc(Br)cc34)c2C)cc1` [Example 12, 6-bromo-N-[1-(4-methoxybenzyl)-5-methyl-1H-pyrazol-4-yl]-2-(trifluoromethyl)quinoline-4-carboxamide], the IC50 was determined as 4 nM.

Take `N#Cc1ccc(Cn2ncc(NC(=O)c3cc(C(F)(F)F)nc4ccc(Br)cc34)c2C(=O)O)cc1` [Example 20, 4-({[6-bromo-2-(trifluoromethyl)quinolin-4-yl]carbonyl}amino)-1-(4-cyanobenzyl)-1H-pyrazole-5-carboxylic acid]: the IC50 is 10200 nM.

For the molecule `Cc1c(NC(=O)c2cc(C(N)=O)nc3ccccc23)cnn1Cc1cccc(F)c1` [Example 27, N^4-[1-(3-fluorobenzyl)-5-methyl-1H-pyrazol-4-yl]quinoline-2,4-dicarboxamide], the IC50 worked out at 52 nM.

As to `Cc1c(NC(=O)c2cc(C(N)=O)nc3ccccc23)cnn1CC1CCCCC1` [Example 28, N^4-[1-(cyclohexylmethyl)-5-methyl-1H-pyrazol-4-yl]quinoline-2,4-dicarboxamide], the IC50 came out at 349 nM.

Turning to `Cc1c(NC(=O)c2cc(C(F)(F)F)nc3ccc(Br)cc23)cnn1Cc1ccc(F)cc1` [Example 4, 6-bromo-N-[1-(4-fluorobenzyl)-5-methyl-1H-pyrazol-4-yl]-2-(trifluoromethyl)quinoline-4-carboxamide], the half-maximal inhibitory concentration (IC50) worked out at 12 nM.

In the case of `Cc1c(NC(=O)c2cc(C(N)=O)nc3ccccc23)cnn1Cc1ccc(C#N)cc1` [Example 9, N^4-[1-(4-cyanobenzyl)-5-methyl-1H-pyrazol-4-yl]quinoline-2,4-dicarboxamide], the concentration for half-maximal inhibition (IC50) was 8.9 nM.

Take `N#Cc1ccc(Cn2ncc(NC(=O)c3cc(C(F)(F)F)nc4ccc(Br)cc34)c2C(N)=O)cc1` [Example 22, 6-bromo-N-[5-carbamoyl-1-(4-cyanobenzyl)-1H-pyrazol-4-yl]-2-(trifluoromethyl)quinoline-4-carboxamide]: the IC50 is 387 nM.

Consider `Cc1c(NC(=O)c2cc(C(N)=O)nc3ccccc23)cnn1Cc1ccc(F)cc1` [Example 5, N^4-[1-(4-fluorobenzyl)-5-methyl-1H-pyrazol-4-yl]quinoline-2,4-dicarboxamide], for which the IC50 amounted to 18 nM.

`Cc1c(NC(=O)c2cc(C3CC3)nc3ccc(F)cc23)cnn1Cc1ccc(F)cc1` [Example 6, 2-cyclopropyl-6-fluoro-N-[1-(4-fluorobenzyl)-5-methyl-1H-pyrazol-4-yl]quinoline-4-carboxamide]: the IC50 is 91 nM.

As to `Cc1c(NC(=O)c2cc(C(F)(F)F)nc3ccc(Br)cc23)cnn1Cc1ccn(C)n1` [Example 44, 6-bromo-N-{5-methyl-1-[(1-methyl-1H-pyrazol-3-yl)methyl]-1H-pyrazol-4-yl}-2-(trifluoromethyl)quinoline-4-carboxamide], the IC50 came out at 531 nM.

`CNC(=O)c1c(NC(=O)c2cc(C(F)(F)F)nc3ccc(Br)cc23)cnn1Cc1ccc(C#N)cc1` [Example 21, 6-bromo-N-[1-(4-cyanobenzyl)-5-(methylcarbamoyl)-1H-pyrazol-4-yl]-2-(trifluoromethyl)quinoline-4-carboxamide]: the IC50 amounted to 3960 nM.

`CNC(=O)c1nc(Cn2ncc(NC(=O)c3cc(C(F)(F)F)nc4ccc(Br)cc34)c2C)no1` [Example 40, 6-bromo-N-(5-methyl-1-{[5-(methylcarbamoyl)-1,2,4-oxadiazol-3-yl]methyl}-1H-pyrazol-4-yl)-2-(trifluoromethyl)quinoline-4-carboxamide]: the IC50 was 456 nM.

On to `CNC(=O)c1nc(Cn2ncc(NC(=O)c3cc(C(N)=O)nc4ccccc34)c2C)no1` [Example 36, N^4-(5-methyl-1-{[5-(methylcarbamoyl)-1,2,4-oxadiazol-3-yl]methyl}-1H-pyrazol-4-yl)quinoline-2,4-dicarboxamide], for which the IC50 turned out to be 2220 nM.

On to `CCc1c(NC(=O)c2cc(C(N)=O)nc3ccccc23)cnn1Cc1ccc(C#N)cc1` [Example 31, N^4-[1-(4-cyanobenzyl)-5-ethyl-1H-pyrazol-4-yl]quinoline-2,4-dicarboxamide], for which the IC50 came to 201 nM.

Consider `Cc1c(NC(=O)c2cc(C(N)=O)nc3cc(F)ccc23)cnn1Cc1ccc(C#N)cc1` [Example 24, N^4-[1-(4-cyanobenzyl)-5-methyl-1H-pyrazol-4-yl]-7-fluoroquinoline-2,4-dicarboxamide], for which the IC50 was found to be 7.1 nM.

With `CCc1c(NC(=O)c2cc(C(N)=O)nc3cc(F)c(Cl)cc23)cnn1Cc1ccc(C#N)cc1` [Example 32, 6-chloro-N^4-[1-(4-cyanobenzyl)-5-ethyl-1H-pyrazol-4-yl]-7-fluoroquinoline-2,4-dicarboxamide], the IC50 came out at 43 nM.

`COc1ccc(Cn2ncc(NC(=O)c3cc(OC)nc4ccccc34)c2C)cc1` [Example 11, 2-methoxy-N-[1-(4-methoxybenzyl)-5-methyl-1H-pyrazol-4-yl]quinoline-4-carboxamide]: the IC50 was found to be 19 nM.

Consider `COC(=O)c1c(NC(=O)c2cc(C(F)(F)F)nc3ccc(Br)cc23)cnn1Cc1ccc(C#N)cc1` [Example 19, methyl 4-({[6-bromo-2-(trifluoromethyl)quinolin-4-yl]carbonyl}amino)-1-(4-cyanobenzyl)-1H-pyrazole-5-carboxylate], for which the IC50 was 1070 nM.

Turning to `Cc1c(NC(=O)c2cc(C(F)(F)F)nc3c(Cl)cc(Cl)cc23)cnn1Cc1ccc(F)cc1` [Example 7, 6,8-dichloro-N-[1-(4-fluorobenzyl)-5-methyl-1H-pyrazol-4-yl]-2-(trifluoromethyl)quinoline-4-carboxamide], the IC50 was 185 nM.

Turning to `Cc1c(NC(=O)c2cc(C(N)=O)nc3ccccc23)cnn1Cc1ccncc1` [Example 29, N^4-[5-methyl-1-(pyridin-4-ylmethyl)-1H-pyrazol-4-yl]quinoline-2,4-dicarboxamide], the IC50 worked out at 2150 nM.

In the case of `Cc1c(NC(=O)c2cc(C(N)=O)nc3ccccc23)cnn1Cc1ccc(F)c(F)c1` [Example 26, N^4-[1-(3,4-difluorobenzyl)-5-methyl-1H-pyrazol-4-yl]quinoline-2,4-dicarboxamide], the IC50 turned out to be 95 nM.

In the case of `NC(=O)c1c(NC(=O)c2cc(C(F)(F)F)nc3ccc(Br)cc23)cnn1Cc1ccc(F)cc1` [Example 18, 6-bromo-N-[5-carbamoyl-1-(4-fluorobenzyl)-1H-pyrazol-4-yl]-2-(trifluoromethyl)quinoline-4-carboxamide], the IC50 was 1250 nM.

Consider `CCS(=O)(=O)N1CCC(Cn2ncc(NC(=O)c3cc(C(N)=O)nc4ccccc34)c2C)CC1` [Example 43, N^4-(1-{[1-(ethylsulfonyl)piperidin-4-yl]methyl}-5-methyl-1H-pyrazol-4-yl)quinoline-2,4-dicarboxamide], for which the 50% inhibitory concentration (IC50) is 396 nM.

For `Cc1c(NC(=O)c2cc(C(N)=O)nc3cc(F)c(Cl)cc23)cnn1Cc1ccc(C#N)cc1` [Example 25, 6-chloro-N^4-[1-(4-cyanobenzyl)-5-methyl-1H-pyrazol-4-yl]-7-fluoroquinoline-2,4-dicarboxamide], the IC50 came out at 6.5 nM.

Take `Cc1nc(Cn2ncc(NC(=O)c3cc(C(N)=O)nc4ccccc34)c2C)cs1` [Example 39, N^4-{5-methyl-1-[(2-methyl-1,3-thiazol-4-yl)methyl]-1H-pyrazol-4-yl}quinoline-2,4-dicarboxamide]: the IC50 came to 517 nM.

Values taken from US20170210738A1, “GLUCOSE TRANSPORT INHIBITORS” (Bayer Pharma Aktiengesellschaft, priority 2014, published 2017).
